Among the data in patent publication US12441691B2 (Cytokinetics, Inc., priority 2020, dated 2025) are AC1.4 and EC50 values, retold here.

The first assay concerns rabbit skeletal myofibrils (fast skeletal myofibrils). In words: Activation of fast skeletal myofibrils (PUMA assay, AC1.4). In kind it is biochemical. The settings on record: calcium at pCa25, AC1.4 = concentration at which the compound increased the enzymatic activity. The procedure, abridged: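 Detergent-washed rabbit psoas myofibrils (~90% fast fibers), calcium set to give 25% of maximal rate (pCa25). ATPase followed by pyruvate kinase/lactate dehydrogenase-coupled NADH oxidation, absorbance at 340 nm. PM12 buffer: 12 mM PIPES, 2 mM MgCl2, 1 mM DTT, pH 6.8.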
Take `CC[C@H](C)[C@H]1C(=O)Nc2ccccc2CN1C(=O)CC(N)=O` [Compound 1, 3-((S)-3-((S)-sec-Butyl)-2-oxo-1,2,3,5-tetrahydro-4H-benzo[e][1,4]diazepin-4-yl)-3-oxopropanamide]: the AC1.4 is 0.91 µM.

In the case of `CC[C@H](C)[C@H]1C(=O)Nc2ccccc2CN1/C(N)=N/C#N` [Compound 2, (S,E)-3-((S)-sec-Butyl)-N′-cyano-2-oxo-1,2,3,5-tetrahydro-4H-benzo[e][1,4]diazepine-4-carboximidamide], the AC1.4 was 0.08 µM.

As for `CC[C@H](C)[C@H]1C(=O)Nc2ccccc2CN1CC(N)=O` [Compound 6, 2-((S)-3-((S)-sec-Butyl)-2-oxo-1,2,3,5-tetrahydro-4H-benzo[e][1,4]diazepin-4-yl)acetamide], the AC1.4 was 0.89 µM.

Regarding `CC(C)[C@H]1C(=O)Nc2ccccc2CN1C(N)=O` [Compound 7, (S)-3-Isopropyl-2-oxo-1,2,3,5-tetrahydro-4H-benzo[e][1,4]diazepine-4-carboxamide], the AC1.4 is 1.80 µM.

Turning to `CC[C@H](C)[C@H]1C(=O)Nc2cc(F)cc(F)c2CN1C(N)=O` [Compound 8, (S)-3-((S)-sec-butyl)-6,8-difluoro-2-oxo-1,2,3,5-tetrahydro-4H-benzo[e][1,4]diazepine-4-carboxamide], the AC1.4 turned out to be 0.37 µM.

For the molecule `CC[C@H](C)[C@H]1C(=O)Nc2cc(F)ccc2CN1C(=O)N1CC[C@H](O)C1` [Compound 359, (S)-3-((S)-sec-butyl)-8-fluoro-4-((S)-3-hydroxypyrrolidine-1-carbonyl)-1,3,4,5-tetrahydro-2H-benzo[e][1,4]diazepin-2-one], the AC1.4 came out at 0.77 µM.

Take `CC[C@H](C)[C@H]1C(=O)Nc2cc(F)ccc2CN1C(=O)NC1CCN(C2COC2)CC1` [Compound 360, (S)-3-((S)-sec-butyl)-8-fluoro-N-(1-(oxetan-3-yl)piperidin-4-yl)-2-oxo-1,2,3,5-tetrahydro-4H-benzo[e][1,4]diazepine-4-carboxamide]: the AC1.4 was 0.37 µM.

As for `CC[C@H](C)[C@H]1C(=O)Nc2cncc(F)c2CN1C(C)=O` [Compound 361, (S)-4-acetyl-3-((S)-sec-butyl)-6-fluoro-1,3,4,5-tetrahydro-2H-pyrido[3,4-e][1,4]diazepin-2-one], the AC1.4 stood at 1.62 µM.

In the case of `CC[C@H](C)[C@H]1C(=O)Nc2cncc(F)c2CN1C(=O)CO` [Compound 362, (S)-3-((S)-sec-butyl)-6-fluoro-4-(2-hydroxyacetyl)-1,3,4,5-tetrahydro-2H-pyrido[3,4-e][1,4]diazepin-2-one], the AC1.4 turned out to be 1.68 µM.

As to `CC[C@H](C)[C@H]1C(=O)Nc2cncc(F)c2CN1C(=O)COC` [Compound 363, (S)-3-((S)-sec-butyl)-6-fluoro-4-(2-methoxyacetyl)-1,3,4,5-tetrahydro-2H-pyrido[3,4-e][1,4]diazepin-2-one], the AC1.4 was determined as 2.60 µM.

`CC[C@H](C)[C@H]1C(=O)Nc2cncc(F)c2CN1C(=O)OC` [Compound 364, methyl (S)-3-((S)-sec-butyl)-6-fluoro-2-oxo-1,2,3,5-tetrahydro-4H-pyrido[3,4-e][1,4]diazepine-4-carboxylate]: the AC1.4 was determined as 3.31 µM.

`CC[C@H](C)[C@H]1C(=O)Nc2cncc(F)c2CN1/C(N)=N/C#N` [Compound 365, (S,E)-3-((S)-sec-butyl)-N′-cyano-6-fluoro-2-oxo-1,2,3,5-tetrahydro-4H-pyrido[3,4-e][1,4]diazepine-4-carboximidamide]: the AC1.4 came out at 0.19 µM.

Consider `CC[C@H](C)[C@H]1C(=O)Nc2cncc(F)c2CN1c1c(N)c(=O)c1=O` [Compound 366, 3-amino-4-((S)-3-((S)-sec-butyl)-6-fluoro-2-oxo-1,2,3,5-tetrahydro-4H-pyrido[3,4-e][1,4]diazepin-4-yl)cyclobut-3-ene-1,2-dione], for which the AC1.4 came to 0.21 µM.

For `CC[C@H](C)[C@H]1C(=O)Nc2cncc(F)c2CN1C(=O)NC` [Compound 367, (S)-3-((S)-sec-butyl)-6-fluoro-N-methyl-2-oxo-1,2,3,5-tetrahydro-4H-pyrido[3,4-e][1,4]diazepine-4-carboxamide], the AC1.4 is 1.05 µM.

On to `CC[C@H](C)[C@H]1C(=O)Nc2cncc(F)c2CN1C(=O)Nc1ccn(C)n1` [Compound 368, (S)-3-((S)-sec-butyl)-6-fluoro-N-(1-methyl-1H-pyrazol-3-yl)-2-oxo-1,2,3,5-tetrahydro-4H-pyrido[3,4-e][1,4]diazepine-4-carboxamide], for which the AC1.4 was 0.41 µM.

On to `CC[C@H](C)[C@H]1C(=O)Nc2cncc(F)c2CN1C(=O)Nc1cc[nH]n1` [Compound 369], for which the AC1.4 was determined as 0.24 µM.

Turning to `CC[C@H](C)[C@H]1C(=O)Nc2cncc(F)c2CN1C(=O)N1CC(O)C1` [Compound 370, (S)-3-((S)-sec-butyl)-6-fluoro-4-(3-hydroxyazetidine-1-carbonyl)-1,3,4,5-tetrahydro-2H-pyrido[3,4-e][1,4]diazepin-2-one], the AC1.4 is 0.88 µM.

On to `CC[C@H](C)[C@H]1C(=O)Nc2cncc(F)c2CN1C(=O)COCc1ccccc1` [Compound 371, (S)-4-(2-(benzyloxy)acetyl)-3-((S)-sec-butyl)-6-fluoro-1,3,4,5-tetrahydro-2H-pyrido[3,4-e][1,4]diazepin-2-one], for which the AC1.4 was 0.50 µM.

As for `CC[C@H](C)[C@H]1C(=O)Nc2ccccc2CN1c1c(N2CCOCC2)c(=O)c1=O` [Compound 372, 3-((S)-3-((S)-sec-butyl)-2-oxo-1,2,3,5-tetrahydro-4H-benzo[e][1,4]diazepin-4-yl)-4-morpholinocyclobut-3-ene-1,2-dione], the AC1.4 was determined as 0.18 µM.

On to `CC[C@H](C)[C@H]1C(=O)Nc2cnccc2CN1C(=O)c1cnn(C)c1` [Compound 373, (S)-3-((S)-sec-butyl)-4-(1-methyl-1H-pyrazole-4-carbonyl)-1,3,4,5-tetrahydro-2H-pyrido[3,4-e][1,4]diazepin-2-one], for which the AC1.4 turned out to be 0.66 µM.

For `CC[C@H](C)[C@H]1C(=O)Nc2cnccc2CN1c1c(NCCO)c(=O)c1=O` [Compound 374, 3-((S)-3-((S)-sec-butyl)-2-oxo-1,2,3,5-tetrahydro-4H-pyrido[3,4-e][1,4]diazepin-4-yl)-4-((2-hydroxyethyl)amino)cyclobut-3-ene-1,2-dione], the AC1.4 was 0.42 µM.

With `CC[C@H](C)[C@H]1C(=O)Nc2cnccc2CN1c1c(N2CC(O)C2)c(=O)c1=O` [Compound 375, 3-((S)-3-((S)-sec-butyl)-2-oxo-1,2,3,5-tetrahydro-4H-pyrido[3,4-e][1,4]diazepin-4-yl)-4-(3-hydroxyazetidin-1-yl)cyclobut-3-ene-1,2-dione], the AC1.4 was determined as 0.26 µM.

Consider `CC[C@H](C)[C@H]1C(=O)Nc2cnccc2CN1c1c(NC)c(=O)c1=O` [Compound 376, 3-((S)-3-((S)-sec-butyl)-2-oxo-1,2,3,5-tetrahydro-4H-pyrido[3,4-e][1,4]diazepin-4-yl)-4-(methylamino)cyclobut-3-ene-1,2-dione], for which the AC1.4 stood at 0.18 µM.

For `CC[C@H](C)[C@H]1C(=O)Nc2cnccc2CN1c1c(N(C)C)c(=O)c1=O` [Compound 377, 3-((S)-3-((S)-sec-butyl)-2-oxo-1,2,3,5-tetrahydro-4H-pyrido[3,4-e][1,4]diazepin-4-yl)-4-(dimethylamino)cyclobut-3-ene-1,2-dione], the AC1.4 is 0.29 µM.

For `CC[C@H](C)[C@H]1C(=O)Nc2cnccc2CN1c1c(N)c(=O)c1=O` [Compound 378, 3-amino-4-((S)-3-((S)-sec-butyl)-2-oxo-1,2,3,5-tetrahydro-4H-pyrido[3,4-e][1,4]diazepin-4-yl)cyclobut-3-ene-1,2-dione], the AC1.4 amounted to 0.15 µM.

Regarding `CC[C@H](C)[C@H]1C(=O)Nc2cnccc2CN1C(=O)N1CC(O)C1` [Compound 379, (S)-3-((S)-sec-butyl)-4-(3-hydroxyazetidine-1-carbonyl)-1,3,4,5-tetrahydro-2H-pyrido[3,4-e][1,4]diazepin-2-one], the AC1.4 came out at 0.92 µM.

Consider `CC[C@H](C)[C@H]1C(=O)Nc2cnccc2N1/C(=N/C#N)Oc1ccccc1` [Compound 380, phenyl (S,Z)-2-((S)-sec-butyl)-N-cyano-3-oxo-3,4-dihydropyrido[3,4-b]pyrazine-1(2H)-carbimidate], for which the AC1.4 was determined as 1.25 µM.

For `CC[C@H](C)[C@H]1C(=O)Nc2cnccc2CN1c1c(NCCOC)c(=O)c1=O` [Compound 381, 3-((S)-3-((S)-sec-butyl)-2-oxo-1,2,3,5-tetrahydro-4H-pyrido[3,4-e][1,4]diazepin-4-yl)-4-((2-methoxyethyl)amino)cyclobut-3-ene-1,2-dione], the AC1.4 is 0.48 µM.

For the next assay, the system named is ankle plantarflexor muscle. In words: Rat isometric ankle plantarflexor muscle force. In kind it is in vivo, Sprague Dawley rats. To be noted: continuous intravenous infusion over sixty minutes, 30 Hz nerve stimulation, estimated EC50 = concentration at which muscle force is 50% of pre-dose maximum tension. From the text: Female Sprague Dawley rats were placed under a stable anesthetic plane with inhaled isoflurane (1-5%). One incision was made on the mid-thigh region of the right leg to expose the sciatic nerve. To prevent co-contraction of the ankle dorsiflexors, an additional incision was made lateral to the patella to isolate and sever the peroneal nerve. Rats were then placed on a temperature-maintained in situ muscle analysis rig (Aurora Scientific, Model 806C). The knee was immobilized in a clamp between two sharpened screws and the foot was taped to a footplate attached to a force transducer (Aurora Scientific, Ontario, Canada). Stainless steel needle electrodes (0.10 mm) were hooked around the exposed sciatic nerve. Isometric ankle plantarflexor muscle contractile force was assessed with the ankle joint at 90° flexion. A 30 Hz electrical stimulation (under supramaximal voltage conditions) was applied to the nerve and the resulting muscle force was recorded via a servomotor. A pre-dose 30 Hz force response was established as the baseline force. A pre-dose 150 Hz force response was established as the maximum isometric force. Compounds were formulated in 50% polyethylene glycol (PEG): 16% Cavitron: 10% dimethylacetamide (DMA) and administered by continuous intravenous infusion over a sixty minute period. The muscle force response to compound was measured every two minutes over the dosing period. Data were reported as an estimated EC50 value, which is the concentration at which muscle force is 50% of the pre-dose maximum tension. In Table 10, “Example Compound” refers to the compound labeled with the same number in Table 2.
Regarding `CC[C@H](C)[C@H]1C(=O)Nc2ccccc2CN1C(=O)CC(N)=O` [Compound 1, 3-((S)-3-((S)-sec-Butyl)-2-oxo-1,2,3,5-tetrahydro-4H-benzo[e][1,4]diazepin-4-yl)-3-oxopropanamide], the EC50 (in general, the midpoint of the concentration-response curve) is 26.2 µM.

With `CC[C@H](C)[C@H]1C(=O)Nc2ccccc2CN1/C(N)=N/C#N` [Compound 2, (S,E)-3-((S)-sec-Butyl)-N′-cyano-2-oxo-1,2,3,5-tetrahydro-4H-benzo[e][1,4]diazepine-4-carboximidamide], the EC50 was 19.1 µM.

Take `CC[C@H](C)[C@H]1C(=O)Nc2ccccc2CN1CC(N)=O` [Compound 6, 2-((S)-3-((S)-sec-Butyl)-2-oxo-1,2,3,5-tetrahydro-4H-benzo[e][1,4]diazepin-4-yl)acetamide]: the EC50 was 20.3 µM.

For `CC(C)[C@H]1C(=O)Nc2ccccc2CN1C(N)=O` [Compound 7, (S)-3-Isopropyl-2-oxo-1,2,3,5-tetrahydro-4H-benzo[e][1,4]diazepine-4-carboxamide], the EC50 is 41.1 µM.

Consider `CC[C@H](C)[C@H]1C(=O)Nc2cc(F)cc(F)c2CN1C(N)=O` [Compound 8, (S)-3-((S)-sec-butyl)-6,8-difluoro-2-oxo-1,2,3,5-tetrahydro-4H-benzo[e][1,4]diazepine-4-carboxamide], for which the EC50 was 15.2 µM.
